Two molecules from patent US5464855A, “Thiophene-2-carboxamidotetrazoles and pharmaceutical use thereof” (Warner-Lambert Company, priority 1994, dated 1995) can be followed below.

For this test, the target named is T1, Mac-1 (Homo sapiens, UniProt P05107+P11215).
T1 construct: isolate neutrophils from ethylenediaminetetraacetic acid (EDTA)-treated venous blood obtained from healthy human volunteers; endogenous in cells; host or cells: human neutrophils (PMN) isolated from venous blood of healthy volunteers
The test can be described thus: Human neutrophil Mac-1 adhesion assay (fMLP-stimulated PMN adhesion to KLH-coated plates). Format: cell-based. As to conditions: human neutrophils, read-out: percent drug inhibition vs. stimulus control.

T1 sequence (P05107 23-769, other chains not shown): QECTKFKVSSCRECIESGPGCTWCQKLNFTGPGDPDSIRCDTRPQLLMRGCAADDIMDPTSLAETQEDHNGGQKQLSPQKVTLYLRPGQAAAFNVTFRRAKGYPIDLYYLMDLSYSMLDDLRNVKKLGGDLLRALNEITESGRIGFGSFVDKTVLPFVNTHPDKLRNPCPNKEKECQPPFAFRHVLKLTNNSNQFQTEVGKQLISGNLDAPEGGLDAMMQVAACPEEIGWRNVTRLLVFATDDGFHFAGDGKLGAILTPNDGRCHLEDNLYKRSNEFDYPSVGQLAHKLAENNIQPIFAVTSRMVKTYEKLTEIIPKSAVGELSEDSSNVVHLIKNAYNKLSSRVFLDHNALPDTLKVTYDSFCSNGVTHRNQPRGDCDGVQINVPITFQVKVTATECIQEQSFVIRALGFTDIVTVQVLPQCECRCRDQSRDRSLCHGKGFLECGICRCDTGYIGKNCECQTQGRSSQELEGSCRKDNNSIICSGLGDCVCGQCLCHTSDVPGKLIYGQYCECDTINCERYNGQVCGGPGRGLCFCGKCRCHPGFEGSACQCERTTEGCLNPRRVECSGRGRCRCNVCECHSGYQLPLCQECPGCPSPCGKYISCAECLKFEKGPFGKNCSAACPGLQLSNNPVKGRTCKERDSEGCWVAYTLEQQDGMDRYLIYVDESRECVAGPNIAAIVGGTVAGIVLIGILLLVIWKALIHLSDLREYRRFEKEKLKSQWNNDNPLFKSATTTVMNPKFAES
Experimental: Protocol for Human Neutrophil Mac-1 Adhesion Assay
Namely, we utilized Ferrante and Thong's methodology to isolate neutrophils from ethylenediaminetetraacetic acid (EDTA)-treated venous blood obtained from healthy human volunteers. Keyhole limpet hemocyanin (KLH) coated microtiter plates were prepared as follows:
All pipetting was automated using the Cetus Pro/Pette (Perkin-Elmer; division of Applied Biosystems, Foster, Calif.). KLH, Megathura crenulata; Calbiochem-Novabiochem, La Jolla, Calif., was prepared at a concentration of 0.5 mg/mL in Dulbecco's PBS phosphate buffered saline (PBS) with Ca^++, pH 7.2 (DPBS).
Microtiter plates are prewashed with 50% EtOH for 1 hour at 37° C., then drained and blotted to dryness. Then 0.3 mL KLH solution was pipetted into each well of the 96 well microtiter plate, covered and incubated overnight at 37° C. […]
a. mean unstimulated cell control OD is determined and subtracted from all other values b. mean net stimulated, e.g., FMLP, control values are determined c. mean drug values are determined and percent drug inhibition vs. stimulus control are calculated as follows: [formula] d. IC50 determinations, plotting logdose vs. percent inhibition, are determined by linear regression analysis using the least squares method.

For `CC(C)Oc1c(C(=O)Nc2nnn[nH]2)sc2c1CCC2` [Example 2, 3-Isopropoxy-5,6-dihydro-4H-cyclopenta[b]thiophene-2-carboxylic acid (1H-tetrazol-5-yl)-amide], the inhibition – broadly, the percentage by which the read-out fell short of the control – at 33 µM was determined as 27%.

Regarding `CC(C)Oc1c(C(=O)Nc2nnn[nH]2)sc2c1CS(=O)(=O)CC2` [Example 6, 3-Isopropoxy-5,5-dioxo-6,7-dihydro-4H-thieno[3,2-c]thiopyran-2-carboxylic acid (1H-tetrazol-5-yl) amide], the inhibition at 33 µM was determined as 38%.
